Measured values reported in patent US7612064B2, “Sulfopyrroles” (Takeda Pharmaceutical Company Limited, priority 2003, dated 2009).

Columns and labels:
Jily = assay: MTS proliferation assay; format: cell-based; conditions: 72 h
Outline: (§1)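 Cells were exposed for 72 h under culture conditions to test compounds at final concentrations of 10, 3, 1 and 0.3 μM, added in complete medium with at most 5% DMSO. MTS reagent was then added for a further 3 h, and absorbance was read at 492 nm.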

MRC5 = assay: MTS proliferation assay; format: cell-based; conditions: MRC5, 72 h
Outline: as §1

[1] = Hoechst 33342 nuclear staining; format: cell-based; conditions: for Hoechst 33342 nuclear staining score, H460: H460 cells; for Hoechst 33342 nuclear staining score, HeLa: HeLa cells; for Hoechst 33342 nuclear staining score, Jily: Jily cells; for Hoechst 33342 nuclear staining score, Jurkat: Jurkat cells; for Hoechst 33342 nuclear staining score, MRC5: MRC5 cells;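 as to all read-outs here: apoptotic nuclei scored 0 none 1 weak under 50% of cells 2 strong over 50% of cells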
Outline: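 After a further 30 min incubation, plates were inspected on a standard inverted fluorescence microscope. The fraction of apoptotic nuclei and other apoptosis-specific morphology were scored as 0 for no activity, 1 for weak activity in less than 50% of the cells, and 2 for strong activity in more than 50% of the cells.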

Jurkat = assay: MTS proliferation assay; format: cell-based, human; conditions: 72 h
Outline: as §1

HeLa = assay: MTS proliferation assay; format: cell-based, human; conditions: 72 h
Outline: as §1

Structure (SMILES) | IC50 (Jily) [nM] | IC50 (MRC5) [nM] | Hoechst 33342 nuclear staining score, H460 ([1]; conc 0.1) | Hoechst 33342 nuclear staining score, H460 ([1]; conc 0.3) | Hoechst 33342 nuclear staining score, H460 ([1]; conc 1) | Hoechst 33342 nuclear staining score, H460 ([1]; conc 3) | Hoechst 33342 nuclear staining score, HeLa ([1]; conc 0.1) | Hoechst 33342 nuclear staining score, HeLa ([1]; conc 0.3) | Hoechst 33342 nuclear staining score, HeLa ([1]; conc 1) | Hoechst 33342 nuclear staining score, HeLa ([1]; conc 3) | Hoechst 33342 nuclear staining score, Jily ([1]; conc 0.1) | Hoechst 33342 nuclear staining score, Jily ([1]; conc 0.3) | Hoechst 33342 nuclear staining score, Jily ([1]; conc 1) | Hoechst 33342 nuclear staining score, Jily ([1]; conc 3) | Hoechst 33342 nuclear staining score, Jurkat ([1]; conc 0.1) | Hoechst 33342 nuclear staining score, Jurkat ([1]; conc 0.3) | Hoechst 33342 nuclear staining score, Jurkat ([1]; conc 1) | Hoechst 33342 nuclear staining score, Jurkat ([1]; conc 3) | Hoechst 33342 nuclear staining score, MRC5 ([1]; conc 0.1) | Hoechst 33342 nuclear staining score, MRC5 ([1]; conc 0.3) | other results
COc1cc(-c2cc(-c3cncc(CN)c3)cn2S(=O)(=O)c2ccc(C)cc2)cc(OC)c1OC [Example 58] | < 1000 | > 1000 | 0 | 0 | 2 (strong activity comprising more than 50% of the cells) | 2 (strong activity comprising more than 50% of the cells) | 0 | 0 | 2 (strong activity comprising more than 50% of the cells) | 2 (strong activity comprising more than 50% of the cells) | 0 | 0 | 2 (strong activity comprising more than 50% of the cells) | 2 (strong activity comprising more than 50% of the cells) | 0 | 2 (strong activity comprising more than 50% of the cells) | 2 (strong activity comprising more than 50% of the cells) | 2 (strong activity comprising more than 50% of the cells) | 0 | 0 | Hoechst 33342 nuclear staining score, MRC5 ([1]; conc 1): 1 (weak activity comprising less than 50% of the cells); Hoechst 33342 nuclear staining score, MRC5 ([1]; conc 3): 2 (strong activity comprising more than 50% of the cells); Hoechst 33342 nuclear staining score, PBLs ([1]; conc 0.1): 0; Hoechst 33342 nuclear staining score, PBLs ([1]; conc 0.3): 0; Hoechst 33342 nuclear staining score, PBLs ([1]; conc 1): 0; Hoechst 33342 nuclear staining score, PBLs ([1]; conc 3): 0; IC50 (Jurkat): < 1000 nM; IC50 (HeLa): < 1000 nM
COc1cc(-c2cc(-c3cccnc3)cn2S(=O)(=O)c2ccc(C(C)(C)C)cc2)cc(OC)c1OC [Example 83] | > 1000 | > 1000 | 0 | 0 | 0 | 0 | 0 | 0 | 0 | 0 | 0 | 0 | 0 | 0 | 0 | 0 | 0 | 0 | 0 | 0 | Hoechst 33342 nuclear staining score, MRC5 ([1]; conc 1): 0; Hoechst 33342 nuclear staining score, MRC5 ([1]; conc 3): 0; Hoechst 33342 nuclear staining score, PBLs ([1]; conc 0.1): 0; Hoechst 33342 nuclear staining score, PBLs ([1]; conc 0.3): 0; Hoechst 33342 nuclear staining score, PBLs ([1]; conc 1): 0; Hoechst 33342 nuclear staining score, PBLs ([1]; conc 3): 0; IC50 (Jurkat): > 1000 nM; IC50 (HeLa): > 1000 nM
COCCCNC(=O)c1cncc(-c2cc(-c3cc(OC)c(OC)c(OC)c3)n(S(=O)(=O)c3ccc(C)cc3)c2)c1.Cl [Example 65] | < 1000 | < 1000 | 0 | 0 | 2 (strong activity comprising more than 50% of the cells) | 2 (strong activity comprising more than 50% of the cells) | 0 | 0 | 0 | 2 (strong activity comprising more than 50% of the cells) | 0 | 0 | 2 (strong activity comprising more than 50% of the cells) | 2 (strong activity comprising more than 50% of the cells) | 0 | 0 | 2 (strong activity comprising more than 50% of the cells) | 2 (strong activity comprising more than 50% of the cells) | 0 | 0 | Hoechst 33342 nuclear staining score, MRC5 ([1]; conc 1): 2 (strong activity comprising more than 50% of the cells); Hoechst 33342 nuclear staining score, MRC5 ([1]; conc 3): 2 (strong activity comprising more than 50% of the cells); Hoechst 33342 nuclear staining score, PBLs ([1]; conc 0.1): 0; Hoechst 33342 nuclear staining score, PBLs ([1]; conc 0.3): 0; Hoechst 33342 nuclear staining score, PBLs ([1]; conc 1): 0; Hoechst 33342 nuclear staining score, PBLs ([1]; conc 3): 0; IC50 (Jurkat): < 1000 nM; IC50 (HeLa): < 1000 nM
